# According to ChEMBL document CHEMBL5678814, “Novel Mps1 Kinase Inhibitors with Potent Antitumor Activity” (Mol Cancer Ther, 2016):
# The source made the active and inactive calls. The calls are words filed in the database; no cut-off is given here.
# Legend:
# NCI-H1299 = assay: Antiproliferative activity against human NCI-H1299 cells assessed as cell growth inhibition incubated for 96 hrs by crystal violet staining; conditions: NCI-H1299, 96 h
# [1] = Cmax in female NMRI mouse plasma at 1 mg/kg, po measured after 24 hrs by LC/-MS/MS analysis
# [2] = target: Mitogen-activated protein kinase 9 (Homo sapiens, UniProt P45984); assay: Binding affinity to JNK2 (unknown origin) assessed as dissociation constant
# Mitogen-activated protein kinase 9, sequence (P45984 whole entry): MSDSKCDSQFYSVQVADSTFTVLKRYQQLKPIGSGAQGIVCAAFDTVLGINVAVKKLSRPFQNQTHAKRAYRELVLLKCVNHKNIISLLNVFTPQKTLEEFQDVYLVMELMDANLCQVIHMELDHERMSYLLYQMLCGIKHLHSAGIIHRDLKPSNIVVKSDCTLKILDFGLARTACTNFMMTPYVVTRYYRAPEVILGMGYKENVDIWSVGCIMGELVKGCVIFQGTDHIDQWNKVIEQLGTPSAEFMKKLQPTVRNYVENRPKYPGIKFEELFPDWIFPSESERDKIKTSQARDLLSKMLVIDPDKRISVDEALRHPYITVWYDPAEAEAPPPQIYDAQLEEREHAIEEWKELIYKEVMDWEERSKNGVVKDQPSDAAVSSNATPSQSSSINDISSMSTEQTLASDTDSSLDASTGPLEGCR
# RPMI-7951 = assay: Antiproliferative activity against human RPMI-7951 cells assessed as cell growth inhibition incubated for 96 hrs by crystal violet staining; conditions: RPMI-7951, 96 h
# SK-MEL3 = assay: Antiproliferative activity against human SK-MEL3 cells assessed as cell growth inhibition incubated for 96 hrs by crystal violet staining; conditions: SK-MEL3, 96 h
# Caov-3 cell line = assay: Antiproliferative activity against human Caov-3 cell line assessed as cell growth inhibition incubated for 96 hrs by crystal violet staining; conditions: Caov-3, 96 h
# NCI-H2030 = assay: Antiproliferative activity against human NCI-H2030 cells assessed as cell growth inhibition incubated for 96 hrs by crystal violet staining; conditions: NCI-H2030, 96 h
# MDA-MB-231 = assay: Antiproliferative activity against human MDA-MB-231 cells assessed as cell growth inhibition incubated for 96 hrs by MTS assay; type: functional, cell-based; conditions: MDA-MB-231, 96 h
# [3] = Volume of distribution at steady state in male Wistar rat plasma at 0.5 mg/kg, iv measured after 24 hrs by LC/-MS/MS analysis; type: ADME, organism-based; conditions: read-out: Vdss
# TMD8 = assay: Antiproliferative activity against human TMD8 cells assessed as cell growth inhibition incubated for 96 hrs by MTS assay; type: functional, cell-based; conditions: TMD8, 96 h
# Calu-6 = assay: Antiproliferative activity against human Calu-6 cells assessed as cell growth inhibition incubated for 96 hrs by crystal violet staining; conditions: Calu-6, 96 h
# RKO [4] = assay: Antiproliferative activity against human TP53 wildtype RKO cells assessed as cell growth inhibition incubated for 96 hrs by crystal violet staining
# [5] = target: Mitogen-activated protein kinase 10 (Homo sapiens, UniProt P53779); assay: Binding affinity to JNK3 (unknown origin) assessed as dissociation constant
# Mitogen-activated protein kinase 10, sequence (P53779 whole entry): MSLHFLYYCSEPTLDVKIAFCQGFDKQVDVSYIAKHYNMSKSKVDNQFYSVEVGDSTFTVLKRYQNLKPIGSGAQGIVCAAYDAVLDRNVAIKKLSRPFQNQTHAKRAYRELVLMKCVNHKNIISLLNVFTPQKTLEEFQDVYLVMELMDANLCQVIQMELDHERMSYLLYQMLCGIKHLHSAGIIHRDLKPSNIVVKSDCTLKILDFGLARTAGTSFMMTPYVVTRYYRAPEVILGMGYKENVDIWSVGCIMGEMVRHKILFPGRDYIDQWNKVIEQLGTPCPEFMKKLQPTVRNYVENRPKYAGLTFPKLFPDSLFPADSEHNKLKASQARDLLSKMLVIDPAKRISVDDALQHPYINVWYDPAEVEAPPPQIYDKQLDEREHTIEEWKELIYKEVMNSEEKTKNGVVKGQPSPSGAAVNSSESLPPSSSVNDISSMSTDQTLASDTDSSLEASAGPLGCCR
# NCI-H661 = assay: Antiproliferative activity against human NCI-H661 cells assessed as cell growth inhibition incubated for 96 hrs by MTS assay; type: functional, cell-based; conditions: NCI-H661, 96 h
# [6] = target: Serine/threonine-protein kinase 38 (Homo sapiens, UniProt Q15208); assay: Binding affinity to NDR1 (unknown origin) assessed as dissociation constant
# Serine/threonine-protein kinase 38, sequence (Q15208 whole entry): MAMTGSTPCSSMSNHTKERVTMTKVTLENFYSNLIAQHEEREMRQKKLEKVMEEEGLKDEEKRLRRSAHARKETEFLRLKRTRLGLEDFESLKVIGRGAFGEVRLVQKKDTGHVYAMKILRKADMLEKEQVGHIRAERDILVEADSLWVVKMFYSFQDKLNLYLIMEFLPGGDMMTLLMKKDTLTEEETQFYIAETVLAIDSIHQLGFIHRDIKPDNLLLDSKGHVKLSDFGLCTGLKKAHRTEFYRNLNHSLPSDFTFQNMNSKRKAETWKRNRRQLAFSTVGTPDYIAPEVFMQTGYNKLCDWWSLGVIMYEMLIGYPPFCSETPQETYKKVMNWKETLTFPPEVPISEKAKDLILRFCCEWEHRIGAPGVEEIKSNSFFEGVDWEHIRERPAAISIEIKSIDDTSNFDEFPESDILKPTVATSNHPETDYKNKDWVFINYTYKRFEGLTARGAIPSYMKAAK
# A2780cis = conditions: Homo sapiens, dose 2.5 mg/kg, route po, time 7.0 day
# [7] = In vivo inhibition of Mps1 in NMRI mouse assessed as MTD at => 1 mg/kg,po administered twice daily for 2 days and measured after 3 days relative to control; type: functional; conditions: time 2 day
# HeLa = assay: cells; conditions: Homo sapiens, 4 h
# [8] = Oral bioavailability in male Wistar rat plasma at 0.5 mg/kg measured after 24 hrs by LC/-MS/MS analysis; type: ADME, organism-based
# FaDu = assay: Antiproliferative activity against human FaDu cells assessed as cell growth inhibition incubated for 96 hrs by crystal violet staining
# OVCAR-8 = assay: Antiproliferative activity against human OVCAR-8 cells assessed as cell growth inhibition incubated for 96 hrs by crystal violet staining; conditions: OVCAR-8, 96 h
# RKO [9] = assay: Antiproliferative activity against human TP53 mutant RKO cells assessed as cell growth inhibition incubated for 96 hrs by crystal violet staining
# NCI-H1373 = assay: Antiproliferative activity against human NCI-H1373 cells assessed as cell growth inhibition incubated for 96 hrs by crystal violet staining; conditions: NCI-H1373, 96 h
# [10] = target: Mast/stem cell growth factor receptor Kit (Homo sapiens, UniProt P10721); assay: Binding affinity to KIT (unknown origin) assessed as dissociation constant
# Mast/stem cell growth factor receptor Kit, sequence (P10721 whole entry): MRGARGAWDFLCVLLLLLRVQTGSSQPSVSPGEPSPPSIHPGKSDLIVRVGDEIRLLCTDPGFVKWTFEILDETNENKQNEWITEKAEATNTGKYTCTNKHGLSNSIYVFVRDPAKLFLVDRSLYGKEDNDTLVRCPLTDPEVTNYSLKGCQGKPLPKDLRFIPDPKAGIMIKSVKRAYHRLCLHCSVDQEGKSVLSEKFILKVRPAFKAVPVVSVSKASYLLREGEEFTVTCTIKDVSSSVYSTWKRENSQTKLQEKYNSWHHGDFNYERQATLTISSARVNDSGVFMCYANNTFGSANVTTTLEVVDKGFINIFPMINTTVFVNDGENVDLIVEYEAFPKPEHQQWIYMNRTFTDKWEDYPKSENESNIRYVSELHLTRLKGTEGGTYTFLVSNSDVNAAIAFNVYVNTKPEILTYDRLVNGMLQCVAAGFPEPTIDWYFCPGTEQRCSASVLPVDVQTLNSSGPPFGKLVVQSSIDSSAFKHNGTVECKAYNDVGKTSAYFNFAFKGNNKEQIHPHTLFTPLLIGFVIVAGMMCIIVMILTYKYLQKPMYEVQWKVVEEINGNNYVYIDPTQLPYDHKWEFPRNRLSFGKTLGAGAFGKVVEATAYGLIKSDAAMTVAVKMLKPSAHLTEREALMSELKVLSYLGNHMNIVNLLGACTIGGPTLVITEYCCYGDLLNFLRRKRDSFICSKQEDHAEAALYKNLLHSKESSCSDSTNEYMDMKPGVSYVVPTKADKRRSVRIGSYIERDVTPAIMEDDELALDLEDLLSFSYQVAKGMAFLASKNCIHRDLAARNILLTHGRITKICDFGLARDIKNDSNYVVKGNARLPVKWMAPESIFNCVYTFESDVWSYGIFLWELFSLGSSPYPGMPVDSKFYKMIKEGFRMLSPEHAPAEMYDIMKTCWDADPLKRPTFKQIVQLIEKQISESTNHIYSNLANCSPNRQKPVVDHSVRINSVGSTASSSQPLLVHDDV
# OCI-LY19 = assay: Antiproliferative activity against human OCILY19 cells assessed as cell growth inhibition incubated for 96 hrs by MTS assay; type: functional, cell-based; conditions: OCI-LY19, 96 h
# HCC70 = assay: Antiproliferative activity against human HCC70 cells assessed as cell growth inhibition incubated for 96 hrs by MTS assay; type: functional, cell-based; conditions: HCC70, 96 h
# CAL-33 = assay: Antiproliferative activity against human CAL-33 cells assessed as cell growth inhibition incubated for 96 hrs by crystal violet staining; conditions: CAL-33, 96 h
# JeKo-1 = assay: Antiproliferative activity against human JeKo-1 cells assessed as cell growth inhibition incubated for 96 hrs by MTS assay; type: functional, cell-based; conditions: JeKo-1, 96 h
# HT-29 = assay: Antiproliferative activity against human HT-29 cells assessed as cell growth inhibition incubated for 96 hrs by crystal violet staining; conditions: HT-29, 96 h
# [11] = Oral bioavailability in female NMRI mouse plasma at 1 mg/kg measured after 24 hrs by LC/-MS/MS analysis
# VCaP = assay: Antiproliferative activity against human VCaP cells assessed as cell growth inhibition incubated for 96 hrs by MTS assay; type: functional, cell-based
# MSTO-211H = assay: Antiproliferative activity against human MSTO-211H cells assessed as cell growth inhibition incubated for 96 hrs by crystal violet staining
# NCI-H2452 = assay: Antiproliferative activity against human NCI-H2452 cells assessed as cell growth inhibition incubated for 96 hrs by crystal violet staining; conditions: NCI-H2452, 96 h
# HT-1080 = assay: Antiproliferative activity against human HT-1080 cells assessed as cell growth inhibition incubated for 96 hrs by MTS assay; type: functional, cell-based; conditions: HT-1080, 96 h
# [12] = Antiproliferative activity against human HeLa-MaTu-ADR cells assessed as cell growth inhibition incubated for 96 hrs by crystal violet staining
# [13] = Synergistic antitumor activity against human MAXF 1384 cells xenografted female athymic NMRI mouse model assessed as MTD at 2 mg/kg,po administered twice daily intermittent for 2 days on/5 days off measured after 48 hrs treatment in the presence of paclitaxel relative to control; type: functional; conditions: time 9 day
# [14] = Synergistic antitumor activity against human LU387 cells xenografted female athymic NMRI mouse model assessed as MTD at 1 mg/kg,po administered twice daily intermittent for 2 days on/5 days off in the presence of paclitaxel relative to control; type: functional; conditions: time 7 day
smiles,measurement,setting,value
COc1cc(S(C)(=O)=O)ccc1Nc1nc2ccc(-c3ccc(NC(=O)[C@H](C)c4ccc(F)cc4)cc3)cn2n1 [BAY-1161909],IC50,NCI-H1299,120 nM
same,Cmax,[1],120 ng/mL
same,Kd,[2],160 nM
same,IC50,RPMI-7951,280 nM
same,IC50,SK-MEL3,53 nM
same,IC50,Caov-3 cell line,98 nM
same,IC50,NCI-H2030,700 nM
same,IC50,MDA-MB-231,110 nM
same,Vd,[3],2.4 L/kg
same,IC50,TMD8,240 nM
same,IC50,Calu-6,> 3000 nM
same,IC50,RKO [4],39 nM
same,Kd,[5],96 nM
same,IC50,NCI-H661,260 nM
same,Kd,[6],40000 nM
same,inhibition,A2780cis,Active
same,MED,[7],>=40%
same,IC50,HeLa,56 nM
same,bioavailability,[8],49%
same,IC50,FaDu,270 nM
same,IC50,OVCAR-8,190 nM
same,IC50,RKO [9],48 nM
same,IC50,NCI-H1373,190 nM
same,Kd,[10],370 nM
same,IC50,OCI-LY19,61 nM
same,IC50,HCC70,87 nM
same,IC50,CAL-33,110 nM
same,IC50,JeKo-1,65 nM
same,IC50,HT-29,100 nM
same,bioavailability,[11],59%
same,IC50,VCaP,> 3000 nM
same,IC50,MSTO-211H,70 nM
same,IC50,NCI-H2452,120 nM
same,IC50,HT-1080,450 nM
same,IC50,[12],180 nM
same,MED,[13],80%
same,MED,[14],40%
